The text below walks through data of patent publication US20210322508A1, “PEPTIDES AND COMPOSITIONS FOR TARGETED TREATMENT AND IMAGING” (SIGNABLOK, INC., priority 2018, published 2021).

Data set [1] concerns Hepa 1-6 syngeneic hepatocellular carcinoma. The note with it: orthotopic Hepa 1-6, Wu et al. 2019, cited from earlier work.
Data set [2] deals with J774 macrophages. The experiment in a line: in vitro macrophage uptake (endocytosis) of rho B-labeled peptides and lipopeptide complexes. The format is cell-based, murine. The note with it: 1 h pretreatment: 40 μM cytochalasin D, 400 μg/mL fucoidan, 10 μM BLT-1; uptake 4 h and 22 h. The protocol: In Vitro Macrophage Uptake of GF9HDL and GA/E31HDL A quantitative in vitro macrophage assay of endo-cytosis of rho B-labeled HDL-mimicking lipopeptide complexes by J774 macrophage was performed as described. (18-20) Briefly, BALB/c murine macrophage J774A.1 cells (ATCC) were cultured at 37° C. with 5% CO2 in Dulbecco's modified Eagle's medium (Cellgro Mediatech, Manassas, Va.) with 2 mM glutamine, 100 U/mL penicillin, 0.1 mg/mL streptomycin, and 10% heat-inactivated fetal bovine serum (Cellgro Mediatech) and grown to approximately 90% confluency in 12-well tissue culture plates (Corning Costar, Corning, N.Y.).
Cells were washed twice using phosphate-buffered saline and lysed using Passive Lysis Buffer (Promega, Madison, Wis.). Rho B fluorescence was measured in the lysates with 544-nm excitation and 590-nm emission filters, using a Fluoroscan Ascent CF fluorescence microplate reader (Thermo Labsystems, Vantaa, Finland). Protein concentrations in the lysates were measured using Bradford reagent (Sigma-Aldrich) and an MRX microplate reader (Dynex Technologies, Chantilly, Va.) according to the manufacturer's recommended protocol.

Data set [3] deals with PVNS patients. The note with it: cited from earlier work.
In data set [4] the test system is mice with collagen-induced arthritis (CIA). Kind of data set: collagen-induced arthritis (CIA) in mice. The note with it: CIA mice. From the text: As described herein, starting on day 24 after immunization, mice with CIA were intraperitoneally (i.p.) administered daily for 14 consecutive days with vehicle (black diamonds), dexamethasone (black squares), GF9 (white circles), GF9-LPC (black circles) and GA/E31-LPC (half black half white circles) at indicated doses. Daily clinical scores were given on a scale of 0-5 for each of the paws on days 24-38. On day 38, mice were killed and the histopathological examination of mouse joints was performed. Histopathological scores of inflammation (I), pannus (P), cartilage damage (CD), bone resorption (BR) and periosteal new bone formation (PBF) are shown. Summed histopathology scores were calculated as the sum of all five histopathological parameters. All results are expressed as the mean±SEM (n=10 mice per group).
Mouse body weight (BW) was measured every other day from day 24 to day 38. Mean BW changes were calculated as a percentage of the difference between beginning (day 24) and final (day 38) BWs of the CIA mice intraperitoneally (i.p.) treated daily for 14 consecutive days with vehicle, dexamethasone, GF9, GF9-LPC and GA/E31-LPC at indicated doses. All results are expressed as the mean±SEM (n=10 mice per group).
Plasma was collected on days 24, 30 and 38 from arthritic mice treated with vehicle (black diamonds), GF9 (white circles), GF9-LPC (black circles) and GA/E31-LPC (half black half white circles). Plasma samples were analyzed for concentrations of interleukin-1b (IL-1b), IL-6, and colony-stimulating factor 1 (CSF1). Results are expressed as the mean±SEM (n=5 mice per group).

Data set [5] deals with DBA/1 mice with collagen-induced arthritis. The experiment in a line: Collagen-induced arthritis (CIA) model. As to conditions: 5 mg/kg i.p. daily 14 days, free peptides. The protocol: Animal studies were performed by Bolder BioPATH (Boulder, Colo., USA). CIA was induced in male 6- to 7-week-old DBA/1 mice by immunization with bovine type II collagen. Briefly, mice were injected intradermally with 100 μl of Freund's complete adjuvant containing 250 μg of bovine type II collagen (2 mg/ml final concentration) at the base of the tail on day 0 and again on day 21. On day 24, mice were randomized by body weight into treatment groups. […] Mice were weighed on study days 24, 26, 28, 30, 32, 34, 36 and 38 (prior to necropsy). Daily clinical scores were given on a scale of 0-5 for each of the paws on days 24-38. On day 38, mice were killed for necropsy.
At the end of study, fore paws, hind paws and knees were harvested, fixed in 10% neutral buffered formalin for 1-2 days, and then decalcified in 5% formic acid for 4-5 days before standard processing for paraffin embedding. Sections (8 μm) were cut and stained with toluidine blue (T blue). Hind paws, fore paws and knees were embedded and sectioned in the frontal plane. Six joints from each animal were processed for histopathological evaluation. The joints were then assessed using 0-5 scale for inflammation, pannus formation, cartilage damage, bone resorption and periosteal new bone formation. A summed histopathology score (sum of five parameters, 0-25 scale) was also determined.
Animal studies were performed by Bolder BioPATH (Boulder, Colo., USA). CIA was induced in male 6- to 7-week-old DBA/1 mice by immunization with bovine type II collagen. Briefly, mice were injected intradermally with 100 μl of Freund's complete adjuvant containing 250 μg of bovine type II collagen (2 mg/ml final concentration) at the base of the tail on day 0 and again on day 21. On day 24, mice were randomized by body weight into treatment groups. […] Starting day 24, mice were injected i.p. intraperitoneally daily for 14 consecutive days with 5 mg/kg G-KV21, G-HV21, G-TE21, M-TK32 and M-VE32 or with PBS (vehicle). Mice were weighed on study days 24, 26, 28, 30, 32, 34, 36 and 38 (prior to necropsy). Daily clinical scores were given on a scale of 0-5 for each of the paws on days 24-38. On day 38, mice were killed for necropsy.

Data set [6] deals with human cancer xenografts. The experiment in a line: PTX-TREM-1/TRIOPEP tumor suppression in human cancer xenografts. The class given is in vivo. The note with it: free and SLP-bound form. From the text:
Tumor suppression studies using PTX-TREM-1/TRIOPEP formulations in free or SLP-bound form can be performed in animal models of cancer similarly as described herein (see e.g., the examples 7 and 8). Female 6-8 week old NU/J mice can be obtained from the Jackson Laboratory (Bar Harbor, Me.) Human cancer cell lines including but not limited to human carcinoma, human pancreas or human breast cancer cell lines can be obtained from ATCC. […] Human cancer xenografts are established by injecting subcutaneously into the right flanks certain amounts of viable cells per mouse. […] When tumor grows to approximately 125 mm^3 (100-150 mm^3), animals are pair-matched by tumor size into treatment and control groups. Either PTX (TAXOL®; 30 mg/kg PTX) or PTX-TREM-1/TRIOPEP formulations in free (60 mg/kg PTX) or SLP-bound (30 mg/kg PTX) are intravenously administered to the animals via tail vein. Clinical observations, body weights and tumor volume measurements are made twice a week once tumors become measureable. It should be noted that TAXOL® is formulated with a detergent Cremophor that in itself is cytotoxic and is also the source of numerous side effects during chemotherapy. The Cremophor content of TAXOL® is about 80× that of paclitaxel per ml.

Data set [7] has as its system TGCT patients. As to conditions: cited from earlier work.
The target in data set [8] is T1, TREM-1 (triggering receptor expressed on myeloid cells-1) on murine J774A.1 macrophages (mouse, UniProt Q9JKE2 21-230).
T1 construct: whole, on cells; the cells are murine
T1 sequence (looked up): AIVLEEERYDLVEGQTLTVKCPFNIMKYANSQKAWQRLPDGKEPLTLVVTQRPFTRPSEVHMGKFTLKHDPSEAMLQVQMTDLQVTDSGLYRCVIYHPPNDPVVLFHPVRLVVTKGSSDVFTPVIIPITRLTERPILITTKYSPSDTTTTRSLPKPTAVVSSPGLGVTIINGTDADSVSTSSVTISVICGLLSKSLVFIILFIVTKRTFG
The experiment in a line: confocal immunofluorescence on macrophages, labelled peptide against TREM-1 staining; colocalisation only, no direct binding assay. The procedure:
Immunofluorescence analysis of TREM-1 and TREM-1/TRIOPEP in the cell membrane was performed using the standard, well-known in the art methods as described in Shen and Sigalov J Cell Mol Med 2017, 21:2524-2534, and Rojas et al. 2018, herein incorporate by reference.
BALB/c murine macrophage J774A.1 cells were grown at 37° C. in six-well tissue culture plates containing glass coverslips. After reaching target confluency of approximately 50%, cells were incubated for 6 h at 37° C. with Dylight 488-labeled GF9 or TREM-1/TRIOPEP-sSLP that contained Dylight 488-labeled GE31. TREM-1 staining was performed was performed using an Alexa 647-labeled rat anti-mouse TREM-1 antibody (Bio-Rad, Hercules, Calif.). ProLong Gold Antifade DAPI (4′,6′-diamidino-2-phenylindole) mounting medium was used to mount coverslips, and the slides were photographed using an Olympus BX60 fluorescence microscope. Confocal imaging was performed with a Leica TCS SP5 II laser scanning confocal microscope.

Non-standard residues stand in square brackets, D forms with d. Residues, ends and D or L forms follow the SMILES beside them. No end group written: not given here. Met(O) = CS(=O)CC[C@H](N)C(=O)O; PTX = not defined here

Take GLLSKSLVF [mGF9, murine GF9 peptide]: the “tumor growth and survival, combined with anti-PD-L1 antibody” value in data set [1] (25 mg/kg i.p. daily) is “synergistically inhibits tumor growth and improves survival”.
Consider fucoidan [reference compound], for which the “effect of scavenger receptor inhibitor on macrophage uptake of GF9-HDL and GA/E31-HDL” value (“effect of scavenger receptor inhibitor” for short) in data set [2] is “substantially suppressed endocytosis of TREM-1 inhibitor complexes at 22 hours but not at 4 hours”.
As for `C=C1[C@@H](C)[C@H]2[C@H](Cc3ccccc3)NC(=O)[C@]23[C@H](OC(C)=O)/C=C/[C@@](C)(O)C(=O)[C@@H](C)C/C=C/[C@H]3[C@@H]1O` [cytochalasin D, reference compound], the “effect of scavenger receptor inhibitor” value in data set [2] was “significantly inhibited”.
With `Cc1ccc(NC(=O)c2ccc(CN3CCN(C)CC3)cc2)cc1Nc1nccc(-c2cccnc2)n1` [Imatinib], the symptomatic improvement in data set [3] (16 of 22 patients assessable for symptoms) was 73%. Also, the “overall response rate per RECIST” value in data set [3] (27 evaluable patients, Cassier et al. 2012) is listed as 19%. The stable disease in data set [3] (Twenty of 27 patients) was 74%.
On to `CCCCCCC1CCCC1=NNC(N)=S` (stereo not drawn) [BLT-1, Blocker of lipid transport 1, reference compound], for which, in data set [2], the “effect of scavenger receptor inhibitor” value is “similarly inhibited the uptake of the complexes at both time points but to a lesser extent”.
On to `CSCC[C@H](NC(=O)[C@H](CCC(=O)O)NC(=O)[C@H](CCC(=O)O)NC(=O)[C@H](CCC(N)=O)NC(=O)[C@H](Cc1c[nH]c2ccccc12)NC(=O)[C@H](CCCCN)NC(=O)[C@H](CCCCN)NC(=O)[C@H](CCC(N)=O)NC(=O)[C@H](Cc1ccccc1)NC(=O)[C@H](CC(=O)O)NC(=O)[C@H](CC(=O)O)NC(=O)[C@H](CC(C)C)NC(=O)[C@H](Cc1ccc(O)cc1)NC(=O)[C@@H]1CCCN1C(=O)[C@H](Cc1ccccc1)NC(=O)[C@H](Cc1ccc(O)cc1)NC(=O)[C@H](CCCCN)NC(=O)[C@H](CC(C)C)NC(=O)[C@@H](NC(=O)[C@@H]1CCCN1C(=O)[C@@H](NC(=O)[C@H](CCCCN)NC(=O)[C@H](Cc1c[nH]c2ccccc12)NC(=O)[C@@H](N)CCSC)[C@@H](C)O)[C@@H](C)O)C(=O)N[C@@H](CCC(=O)O)C(=O)N[C@@H](CC(C)C)C(=O)N[C@@H](Cc1ccc(O)cc1)C(=O)N[C@@H](CCCNC(=N)N)C(=O)N[C@@H](CCC(N)=O)C(=O)N[C@@H](CCCCN)C(=O)N[C@H](C(=O)N[C@@H](CCC(=O)O)C(=O)O)C(C)C` [M-VE32] (H-MWKTPTLKYFPYLDDFQKKWQEEMELYRQKVE-OH), for which, in data set [4] (day 24 to day 38), the “tolerability in arthritic mice (body weight changes)” value was “well-tolerated by arthritic mice”. For the same molecule, in data set [4] (treatment days 24-38), the “arthritis (clinical arthritis score)” value is “ameliorate the disease”. Moreover, the “CIA severity; bone and cartilage damage” value in data set [5] was “ameliorates CIA and protects against bone and cartilage damage”.
For the molecule “PTX-GFLSKSLVFPLGEEMRDRARAHVDALRTHLA ({PTX}-GFLSKSLVFPLGEEMRDRARAHVDALRTHLA; reading uncertain; also: printed as PTX-GFLSKSLVFPLGEEMRDRARAHVDALRTHLA) [PTX-TREM-1/TRIOPEP]”, in data set [6], the “anticancer activity (tumor inhibition, survival rate) as compared to PTX” value was “anticipated to have a significantly higher anticancer activity” and the “tolerability in cancer mice as compared to PTX” value is “anticipated to be substantially better tolerated by cancer mice”.
Consider “GLLSGSLVF [mGF9-G, control murine GF9-G peptide, reference compound]”, for which the “tumor growth (and survival), standalone treatment” value in data set [1] was “do not affect tumor growth and survival”.
In the case of `FC(F)(F)c1ccc(CNc2ccc(Cc3c[nH]c4ncc(Cl)cc34)cn2)cn1` [Pexidartinib], the tumor volume result in data set [7] (Phase 2 study) was “prolonged regression in tumor volume in most patients”. In addition, in data set [7] (Phase 3 study suspended), the liver toxicity entry is given as “two reported cases of nonfatal, serious liver toxicity”. For the same molecule, the partial response in data set [7] (extension study, 23 patients, Tap et al. 2015) is reported as 12 patients. Also, the stable disease in data set [7] (extension study, 23 patients) was 7 patients.

B1: TREM-1-related trifunctional peptide (TREM-1/TRIOPEP) GE31, methionine sulfoxidized (peptide)
peptide: GFLSKSLVFPYLDDFQKKWQEE[Met(O)]ELYRQKVE
modifications: not fully specified; printed as GFLSKSLVFPYLDDFQKKWQEEM(O)ELYRQKVE; also: delivered in spherical synthetic lipopeptide particles (TREM-1/TRIOPEP-sSLP)
notes: In the cytokine assays it was used as an equimolar mixture with GA31; also called TREM-1 modulatory peptide GE31
On to B1, for which the binding result in data set [8] is recorded as “binds”.
